Reference: article PMC6914219 (European journal of pharmacology, 2019)

Test system: Caco-2 monolayers

Substance: lucifer yellow
- Papp: < 1e+13 nm/s
